Patent US8884011B2, “Nucleotide analogues as precursor molecules for antivirals” (Centre National de la Recherche Scientifique-CNRS, priority 2006, dated 2014)
Like-named read-outs stand apart in the source and are kept apart here.

Key:
[1] = molecular target: wild-type RT of HIV-1 (Human immunodeficiency virus type 1 group M subtype B, UniProt P04585); experiment: biochemical; type: biochemical; details: for Selectivity = (kpol/Kd) natural nucleotide/(kpol/Kd) nucleotide analogue (discrimination): versus dATP
[2] = molecular target: K65R mutant RT of HIV-1 (Human immunodeficiency virus type 1 group M subtype B, UniProt P04585, K652R); experiment: biochemical; type: biochemical; details: for Selectivity = (kpol/Kd) natural nucleotide/(kpol/Kd) nucleotide analogue: versus dATP
[3] = tested on: HIV-1-LAI; experiment: Anti-HIV test in CMSP cultures infected by HIV-1-LAI (RT activity in supernatants); type: cell-based; details: for IT (selectivity index, TC50/EC50): HIV-1 (LAI), CMSP; for EC50: Human immunodeficiency virus 1, 168 h, read-out: EC50 (μM) HIV-1 (LAI)
[4] = Cytotoxicity by MTT test in cultures of uninfected CMSP; details: human
[5] = Cytostatic effect on parent hepatoma cell line HepG2 (MTS method); details: human
[6] = tested on: HBV; experiment: Anti-HBV test in infected HepAD38 cells (intracellular viral DNA by Q-PCR); type: cell-based; details: for SI selectivity index (TC50/EC50): HBV, HepAD38 cells; for EC50: Hepatitis B virus, 144 h, infected HepAD38 cells, 50% reduction of viral DNA, day 6 post-induction
Protocol: These are hepatoma cells that have been stably transfected with a cDNA copy of the pregenomic RNA of wild-type virus. Withdrawal of tetracycline from the culture medium results in the initiation of viral replication. This offers the advantage, in contrast to the Hep G2.2.15 cell lines commonly used, that there is no, or very limited background viral DNA synthesis. Cells were cultured at 37° C. in a humidified 5% CO2/air atmosphere in seeding medium, DMEM/Ham's F12 (50/50) supplemented with 10% (v/v) heat-inactivated fetal calf serum, 100 IU/ml penicillin, 50 μg/ml streptomycin, 100 Ξg/ml kanamycin, 400 μg/ml G418, and 0.3 μg/ml tetracycline. […] After 2-3 days the cultures were induced for viral production by washing with prewarmed PBS and were fed with […] assay medium (seeding medium without tetracycline and G418) with or without the antiviral compounds. Medium was changed after 3 days. The antiviral effect was quantified by measuring levels of intracellular viral DNA at day 6 post-induction, by a real time quantitative PCR (Q-PCR) method. Total cellular DNA was extracted from the cells by means of a commercial kit. […] The reaction was analyzed using a SDS 7000. A plasmid containing the full length insert of the HBV genome was used to prepare the standard curve. The amount of viral DNA produced in treated cultures was expressed as a percentage of the mock treated samples. […] The cytostatic effect of the various compounds was assessed employing the parent hepatoma cell line HepG2. The effect of the compounds on exponentially growing HepG2 cells was evaluated by means of the MTS method. Briefly, cells were seeded at a density of 3000/well (96 well plate) and were allowed to proliferate for 3 days in the absence or presence of compounds after which the optical density was measured with a 96-well plate reader and cell density was determined.

[7] = tested on: HBV; experiment: Anti-HBV test in infected Huh7 cells; type: cell-based; details: Hepatitis B virus
[8] = tested on: K65R mutant RT of HIV-1; experiment: biochemical; type: biochemical
[9] = affinities of the RT for the analogues (Kd), wild-type RT, unit inferred

SMILES	kpol ([1]; wild-type RT)	kpol/Kd ([1]; wild-type RT)	Kd ([1]; wild-type RT, read-out: Kd)	Kd ([2]; K65R mutant RT)	kpol ([2]; K65R mutant RT)	kpol/Kd ([2]; K65R mutant RT)	Selectivity = (kpol/Kd) natural nucleotide/(kpol/Kd) nucleotide analogue (discrimination) ([1]; wild-type RT)	reduction in the incorporation velocity of the nucleotide (factor) [8]	further results
Nc1ncnc2c1ncn2[C@H]1C[C@H](O)[C@@H](COP(=O)(O)OP(=O)(O)OP(=O)(O)O)O1 [dATP]	50.16 s⁻¹	6.71	7.47 µM	6.89 µM	11.63 s⁻¹	1.69			Kd ([1]; wild-type RT, unit inferred, read-out: affinities of the RT for the analogues (Kd)): 7.5 µM
CC(Cn1cnc2c(N)ncnc21)OCP(=O)(O)O (stereo not shown) [PMPA, 9-(2-(phosphonomethoxy)propyl)adenine]									IT (selectivity index, TC50/EC50) [3]: >77; EC50 [3]: 1.3 µM; CC50 at 7 days [4]: > 100 µM; CC50 at 3 days ([5]; exponentially growing HepG2 cells): > 35 µM; SI selectivity index (TC50/EC50) [6]: >12; EC50 [6]: 2.88 µM; EC50 ([7]; Huh-7, read-out: EC50 (μM) HBV): 4 µM
Nc1ncnc2c1ncn2CCOCP(=O)(O)OP(=O)(O)OP(=O)(O)O [PMEApp, PMEA diphosphate]	6.8 s⁻¹	0.86	7.9 µM	7.7 µM	0.75 s⁻¹	0.1	7.8	9	Selectivity = (kpol/Kd) natural nucleotide/(kpol/Kd) nucleotide analogue ([2]; K65R mutant RT): 16.9
Nc1ncnc2c1ncn2CCOCP(O)(=S)OP(=O)(O)OP(=O)(O)O (stereo not shown) [Compound 12, 9-[2-(diphosphorylthiophosphonomethoxy)ethyl]adenine]	0.55 s⁻¹	0.5			0.03 s⁻¹	0.04	14.5	18	Kd [1, 9]: 1.2 µM; incorporation velocity, times lower than that of natural nucleotide dATP ([1]; wild-type RT): 90 times; Kd [2]: 0.7 µM
Nc1ncnc2c1ncn2CCOCP(=O)(O)O [PMEA, 9-(2-(phosphonomethoxy)ethyl)adenine]									IT (selectivity index, TC50/EC50) [3]: >5; EC50 ([3]; CMSP cultures, 7 days, RT activity in supernatants): 1.9 µM; CC50 at 7 days [4]: > 19 µM; CC50 at 3 days [5]: > 200 µM; SI selectivity index (TC50/EC50) [6]: >23; EC50 [6]: 8.8 µM; EC50 ([7]; Huh-7, infected Huh7 cells, 50% reduction of viral DNA, read-out: EC50 (μM) HBV): 6 µM
C[C@H](Cn1cnc2c(N)ncnc21)OCP(O)(=S)OP(=O)(O)OP(=O)(O)O (stereo partly drawn) [Compound 13, (R)-9-[2-(pyrophosphoroxythiophosphonomethoxy)propyl]adenine]					0.077 s⁻¹	0.03	59.8		incorporation velocity, times lower than that of natural nucleotide dATP [1]: 90 times; kpol [1]: 0.58 s⁻¹; kpol/Kd [1]: 0.11; Kd ([1]; Kd (μM), wild-type RT): 5.2 µM; Kd [1, 9]: 5.5 µM; Kd [2]: 2.7 µM
C[C@@H](Cn1cnc2c(N)ncnc21)OCP(=O)(O)OP(=O)(O)OP(=O)(O)O [PMPApp, PMPA diphosphate]	7 s⁻¹	0.3	23 µM	18 µM	0.32 s⁻¹	0.017	22.3	22	Selectivity = (kpol/Kd) natural nucleotide/(kpol/Kd) nucleotide analogue (discrimination) ([1]; wild-type RT, listed as PMPADP): 22; Selectivity = (kpol/Kd) natural nucleotide/(kpol/Kd) nucleotide analogue ([2]; K65R mutant RT): 99.4
